Patent US20120028917A1, “Use Of N-(4-((3-(2-Amino-4-Pyrimidinyl)-2-Pyridinyl)Oxy)Phenyl)-4-(4-Methyl-2-Thienyl)-1-Phthalazinamine In The Treatment Of Antimitotic Agent Resistant Cancer” (Amgen Inc., priority 2009, published 2012)
Values joined by “and” are separate entries in the source; they are usually repeats but may differ in a detail not shown here. Equal values may be shown once. Marks after values point to notes of the source that are not given here.

Key:
[1] = test system: 32 human tumor cell lines; assay: Antiproliferative effect across tumor cell line panel (summary); type: cell-based; details: across solid and hematologic tumor cell lines (Tables 1 and 2)
Description: Tumor cells were seeded in a Packard View 96-well plate in 100 μL of appropriate complete media at a density of 3000 or 5000 cells/well depending on the cell line growth kinetics (broadly defined as slow vs. fast). All dilutions were performed using Biomek FX workstation. The next day cells were treated with AMG 900 (11-point dose range 0.156 to 0.0003 μM) with a final DMSO concentration of 0.12% in media. After 24 hours, the media containing compound was removed and the cells were washed with complete media. The cells were then incubated in 100 μL of fresh complete media (without compound) for 48 hours. After 48 hours, the cells were fixed by adding 100 μL of fixation buffer to 100 μL of complete media. […] Quantification of individual cell nuclear area and intensity was performed based on Hoechst 33342 DNA dye fluorescence. A threshold on the nuclear area based on the DMSO-treated control well was set to quantify the number of normal size nuclei from nuclear debris and polyploidy cells. […] The dose-concentration curves and EC50 values were calculated using a 4-parameter equation.
Tumor cells were seeded in a 300 μL deep 96-well plate in 150 μL of appropriate complete media at a density of 100,000 cells/well. […] Data was acquired and analyzed by flow cytometer (LSRII). […] The concentration-response curves and EC50 values were calculated using a 4-parameter equation.

MDA-MB-231 xenograft = assay: Xenograft tumor growth inhibition (Example 7); type: in vivo, mice; details: MDA-MB-231, Breast; oral 15 mg/kg b.i.d. 2 consecutive days per week or 3 mg/kg b.i.d. every day, 3 weeks
Description: (§1) The in-vivo effect of AMG 900 on tumor growth was further evaluated in a panel of human xenografts from five different tumor types (breast, colon, lung, pancreatic, and uterine), including three MDR xenograft models. Mice bearing established tumors were orally administered AMG 900 at 15 mg/kg b.i.d. for 2 consecutive days per week for 3 weeks or at 3 mg/kg b.i.d. every day for 3 weeks. The maximum percentage of tumor growth inhibition (TGI) is reported, in Table 7 below, for each xenograft model. The percentage of TGI was calculated as the difference between the change in vehicle-treated control and AMG 900-treated tumor volumes during the study period.

[2] = test system: MES-SA-Dx5 (MDR) xenograft; assay: Xenograft tumor growth inhibition (Example 7); type: in vivo, mice; details: Uterine, oral 15 mg/kg b.i.d. 2 consecutive days per week or 3 mg/kg b.i.d. every day, 3 weeks
Description: as §1

MiaPaCa2 xenograft = assay: Xenograft tumor growth inhibition (Example 7); type: in vivo, mice; details: MiaPaCa2, Pancreas; oral 15 mg/kg b.i.d. 2 consecutive days per week or 3 mg/kg b.i.d. every day, 3 weeks
Description: as §1

HCT-15 (MDR) xenograft = assay: Xenograft tumor growth inhibition (Example 7); type: in vivo, mice; details: Colon, oral 15 mg/kg b.i.d. 2 consecutive days per week or 3 mg/kg b.i.d. every day, 3 weeks
Description: as §1

MES-SA xenograft = assay: Xenograft tumor growth inhibition (Example 7); type: in vivo, mice; details: Uterine, oral 15 mg/kg b.i.d. 2 consecutive days per week or 3 mg/kg b.i.d. every day, 3 weeks
Description: as §1

COLO 205 xenograft = assay: Xenograft tumor growth inhibition (Example 7); type: in vivo, mice; details: COLO 205, Colon; oral 15 mg/kg b.i.d. 2 consecutive days per week or 3 mg/kg b.i.d. every day, 3 weeks
Description: as §1

NCI-H460 xenograft = assay: Xenograft tumor growth inhibition (Example 7); type: in vivo, mice; details: NCI-H460, Lung; oral 15 mg/kg b.i.d. 2 consecutive days per week or 3 mg/kg b.i.d. every day, 3 weeks
Description: as §1

[3] = test system: NCI-H460-PTX (MDR) xenograft; assay: Xenograft tumor growth inhibition (Example 7); type: in vivo, mice; details: Lung, oral 15 mg/kg b.i.d. 2 consecutive days per week or 3 mg/kg b.i.d. every day, 3 weeks
Description: as §1

In the case of `Cc1csc(-c2nnc(Nc3ccc(Oc4ncccc4-c4ccnc(N)n4)cc3)c3ccccc23)c1` [AMG 900, N-(4-((3-(2-amino-4-pyrimidinyl)-2-pyridinyl)oxy)phenyl)-4-(4-methyl-2-thienyl)-1-phthalazinamine], the EC50 [1] is reported as 1 to 5 nM, the “Maximum TGI (%)” value (MDA-MB-231 xenograft) is reported as 82** % and the “Maximum TGI (%)” value [2] is reported as 84%. The “Maximum TGI (%)” value (MiaPaCa2 xenograft) was 60** %, the “Maximum TGI (%)” value (HCT-15 (MDR) xenograft) was 50* % and the “Maximum TGI (%)” value (MES-SA xenograft) was 87** %. For the same molecule, the “Maximum TGI (%)” value (COLO 205 xenograft) was 73* %, the “Maximum TGI (%)” value (NCI-H460 xenograft) was 85** % and the “Maximum TGI (%)” value [3] was 66% and 65** %.
